Results published in PubChem BioAssay AID256 (DTP/NCI, 2004).
Where “and” joins values, the source holds several entries; their conditions need not be identical. Identical values can stand only once. Inconclusive results and toxic doses are left out.

Tested on: CD2F1 mice, L1210 leukemia ip, survival T/C
Assay: NCI In Vivo Anticancer Drug Screen. Data for tumor model L1210 Leukemia (intraperitoneal) in CD2F1 (CDF1) mice
Details: endpoint: mean survival time, higher = longer survival
Method in brief: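 Antitumor effect is scored in animals hosting a serially transplanted tumor. Values compare compound-dosed animals against vehicle-only controls as a simple quotient.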

[1] = dose: 25.0 mg/kg/injection, schedule: Q01DX009 (ip), vehicle: saline
[2] = dose: 50.0 mg/kg/injection, schedule: Q01DX009 (ip), vehicle: saline
[3] = dose: 100.0 mg/kg/injection, schedule: Q01DX009 (ip), vehicle: saline
[4] = dose: 100.0 mg/kg/injection, schedule: Q04DX003 (ip), vehicle: saline
[5] = dose: 200.0 mg/kg/injection, schedule: Q01DX001 (ip), vehicle: saline
[6] = dose: 400.0 mg/kg/injection, schedule: Q01DX001 (ip), vehicle: saline
[7] = dose: 100.0 mg/kg/injection, schedule: Q01DX001 (ip), vehicle: saline
[8] = dose: 100.0 mg/kg/injection, schedule: Q04DX002 (ip), vehicle: saline with Tween-80
[9] = dose: 200.0 mg/kg/injection, schedule: Q04DX002 (ip), vehicle: saline with Tween-80
[10] = dose: 400.0 mg/kg/injection, schedule: Q04DX002 (ip), vehicle: saline with Tween-80
[11] = dose: 100.0 mg/kg/injection, schedule: Q01DX009 (ip), vehicle: saline with Tween-80
[12] = dose: 100.0 mg/kg/injection, schedule: Q04DX003 (ip), vehicle: saline with Tween-80
[13] = dose: 200.0 mg/kg/injection, schedule: Q01DX009 (ip), vehicle: saline with Tween-80
[14] = dose: 200.0 mg/kg/injection, schedule: Q04DX003 (ip), vehicle: saline with Tween-80
[15] = dose: 400.0 mg/kg/injection, schedule: Q01DX009 (ip), vehicle: saline with Tween-80
[16] = dose: 400.0 mg/kg/injection, schedule: Q04DX003 (ip), vehicle: saline with Tween-80

With `C/C(=N\N=C(N)N)c1ccc(NC(=O)Nc2ccc(/C(C)=N/N=C(N)N)cc2)cc1` the T/C (dose: 25.0 mg/kg/injection, schedule: Q01DX005 (ip), vehicle: saline) was 155 % of control, the T/C [1] was 155 % of control and the T/C (dose: 25.0 mg/kg/injection, schedule: Q01DX009 (sc), vehicle: saline) was 101 % of control. The T/C (dose: 50.0 mg/kg/injection, schedule: Q01DX005 (ip), vehicle: saline) was 185 % of control, the T/C (dose: 50.0 mg/kg/injection, schedule: Q01DX007 (ip), vehicle: saline) was 152 % of control and the T/C [2] was 154 % of control and 188 % of control. The T/C (dose: 50.0 mg/kg/injection, schedule: Q01DX009 (sc), vehicle: saline) was 107 % of control, the T/C (dose: 100.0 mg/kg/injection, schedule: Q01DX001 (sc), vehicle: saline) was 101 % of control and the T/C (dose: 100.0 mg/kg/injection, schedule: Q01DX005 (ip), vehicle: saline) was 223 % of control. For the same compound, the T/C (dose: 100.0 mg/kg/injection, schedule: Q01DX007 (ip), vehicle: saline) was 225 % of control, the T/C [3] was 250 % of control and 314 % of control and the T/C (dose: 100.0 mg/kg/injection, schedule: Q01DX009 (oral), vehicle: saline) was 98 % of control. The T/C (dose: 100.0 mg/kg/injection, schedule: Q01DX009 (sc), vehicle: saline) was 102 % of control, the T/C (dose: 100.0 mg/kg/injection, schedule: Q03DX003 (ip), vehicle: saline) was 154 % of control and the T/C [4] was 163 % of control. The T/C (dose: 100.0 mg/kg/injection, schedule: Q## X024 (ip), vehicle: saline) was 160 % of control, the T/C [5] was 155 % of control and the T/C (dose: 200.0 mg/kg/injection, schedule: Q01DX001 (oral), vehicle: saline) was 103 % of control. For the same compound, the T/C (dose: 200.0 mg/kg/injection, schedule: Q01DX001 (sc), vehicle: saline) was 102 % of control, the T/C (dose: 200.0 mg/kg/injection, schedule: Q01DX007 (ip), vehicle: saline) was 90 % of control and the T/C (dose: 200.0 mg/kg/injection, schedule: Q01DX009 (ip), vehicle: saline) was 217 % of control. The T/C (dose: 200.0 mg/kg/injection, schedule: Q01DX009 (oral), vehicle: saline) was 88 % of control, the T/C (dose: 200.0 mg/kg/injection, schedule: Q01DX009 (sc), vehicle: saline) was 119 % of control and the T/C (dose: 200.0 mg/kg/injection, schedule: Q03DX003 (ip), vehicle: saline) was 186 % of control. The T/C (dose: 200.0 mg/kg/injection, schedule: Q03HX008 (ip), vehicle: saline) was 152 % of control, the T/C (dose: 200.0 mg/kg/injection, schedule: Q04DX003 (ip), vehicle: saline) was 156 % of control and 200 % of control and the T/C (dose: 200.0 mg/kg/injection, schedule: Q08DX002 (ip), vehicle: saline) was 172 % of control. The T/C (dose: 200.0 mg/kg/injection, schedule: Q## X016 (ip), vehicle: saline) was 198 % of control, the T/C (dose: 200.0 mg/kg/injection, schedule: Q## X024 (ip), vehicle: saline) was 230 % of control and the T/C [6] was 180 % of control. For the same compound, the T/C (dose: 400.0 mg/kg/injection, schedule: Q01DX001 (oral), vehicle: saline) was 101 % of control, the T/C (dose: 400.0 mg/kg/injection, schedule: Q01DX001 (sc), vehicle: saline) was 105 % of control and the T/C (dose: 400.0 mg/kg/injection, schedule: Q01DX009 (oral), vehicle: saline) was 116 % of control. For the same compound, the T/C (dose: 400.0 mg/kg/injection, schedule: Q03HX008 (ip), vehicle: saline) was 179 % of control, the T/C (dose: 400.0 mg/kg/injection, schedule: Q04DX003 (ip), vehicle: saline) was 325 % of control and the T/C (dose: 400.0 mg/kg/injection, schedule: Q08DX002 (ip), vehicle: saline) was 225 % of control. For the same compound, the T/C (dose: 400.0 mg/kg/injection, schedule: Q## X016 (ip), vehicle: saline) was 284 % of control, the T/C (dose: 400.0 mg/kg/injection, schedule: Q## X024 (ip), vehicle: saline) was 374 % of control and the T/C (dose: 800.0 mg/kg/injection, schedule: Q01DX001 (ip), vehicle: saline) was 206 % of control. For the same compound, the T/C (dose: 800.0 mg/kg/injection, schedule: Q01DX001 (oral), vehicle: saline) was 102 % of control, the T/C (dose: 800.0 mg/kg/injection, schedule: Q01DX001 (sc), vehicle: saline) was 105 % of control and the T/C (dose: 800.0 mg/kg/injection, schedule: Q01DX009 (oral), vehicle: saline) was 98 % of control. The T/C (dose: 800.0 mg/kg/injection, schedule: Q04DX003 (ip), vehicle: saline) was 294 % of control, the T/C (dose: 800.0 mg/kg/injection, schedule: Q08DX002 (ip), vehicle: saline) was 217 % of control and the T/C (dose: 800.0 mg/kg/injection, schedule: Q## X016 (ip), vehicle: saline) was 235 % of control. The T/C (dose: 1600.0 mg/kg/injection, schedule: Q01DX001 (oral), vehicle: saline) was 102 % of control.
With `Clc1ccc(/C=N/N=C/c2ccc(Cl)cc2Cl)c(Cl)c1` the T/C (dose: 100.0 mg/kg/injection, schedule: Q01DX001 (ip), vehicle: Klucel (hydroxypropylcellulose) (HPC)) was 95 % of control, the T/C (dose: 200.0 mg/kg/injection, schedule: Q01DX001 (ip), vehicle: Klucel (hydroxypropylcellulose) (HPC)) was 89 % of control and the T/C (dose: 400.0 mg/kg/injection, schedule: Q01DX001 (ip), vehicle: Klucel (hydroxypropylcellulose) (HPC)) was 103 % of control.
With `CC[N+]1(C2CCC3CCC2C3O)CCOCC1` (centres undefined) the T/C [1] was 91 % of control, the T/C (dose: 25.0 mg/kg/injection, schedule: Q04DX003 (ip), vehicle: saline) was 95 % of control and the T/C [2] was 94 % of control. For the same compound, the T/C (dose: 50.0 mg/kg/injection, schedule: Q04DX003 (ip), vehicle: saline) was 97 % of control, the T/C (dose: 100.0 mg/kg/injection, schedule: Q01DX001 (ip), vehicle: saline with Tween-80) was 100 % of control and the T/C [3] was 92 % of control. The T/C [4] was 100 % of control.
For `COC(=O)C1=CCCN(C)C1`, the T/C (dose: 12.5 mg/kg/injection, schedule: Q01DX009 (ip), vehicle: saline) was 98 % of control, the T/C [1] was 104 % of control and the T/C [2] was 98 % of control.
For `COC1=C(OC)C(=O)C(C/C=C(\C)CC/C=C(\C)CC/C=C(\C)CC/C=C(\C)CC/C=C(\C)CCC=C(C)C)=C(C)C1=O`, the T/C [7] was 102 % of control, the T/C [5] was 103 % of control and the T/C [6] was 100 % of control.
`CCc1ccc(NC(=O)c2ccc(C(=O)Nc3ccc(CC)cc3)cc2)cc1` was tested, and the T/C [7] was 95 % of control, the T/C [5] was 95 % of control and the T/C [6] was 104 % of control.
With `CN(C)C(=S)Oc1ccc2ccc3ccccc3c2c1` the T/C [8] was 96 % of control, the T/C [9] was 89 % of control and the T/C [10] was 104 % of control.
For `CC1CNC(=S)O1` (centres undefined), the T/C (dose: 25.0 mg/kg/injection, schedule: Q01DX009 (ip), vehicle: saline with Tween-80) was 102 % of control, the T/C (dose: 50.0 mg/kg/injection, schedule: Q01DX009 (ip), vehicle: saline with Tween-80) was 100 % of control and the T/C [11] was 97 % of control and 103 % of control. The T/C [12] was 100 % of control, the T/C [13] was 97 % of control and 95 % of control and the T/C [14] was 97 % of control. For the same compound, the T/C [15] was 97 % of control and 106 % of control and the T/C [16] was 103 % of control.
With `CC([NH-])CC[NH-].O=S(=O)(O)O.[Pt+2]` (centres undefined) the T/C (dose: 6.25 mg/kg/injection, schedule: Q04DX003 (ip), vehicle: saline) was 158 % of control.
`CSc1ccc(OC(=O)Nc2ccc(C)c([N+](=O)[O-])c2)cc1C` was tested, and the T/C [12] was 92 % of control, the T/C [14] was 92 % of control and the T/C [16] was 96 % of control.
For `Nc1ccc(OCCCc2ccccc2)c([N+](=O)[O-])c1`, the T/C (dose: 100.0 mg/kg/injection, schedule: Q01DX001 (ip), vehicle: other) was 92 % of control and 100 % of control, the T/C [11] was 96 % of control and 102 % of control and the T/C (dose: 100.0 mg/kg/injection, schedule: Q04DX002 (ip), vehicle: other) was 98 % of control. For the same compound, the T/C (dose: 100.0 mg/kg/injection, schedule: Q04DX003 (ip), vehicle: other) was 98 % of control, the T/C (dose: 200.0 mg/kg/injection, schedule: Q01DX001 (ip), vehicle: other) was 93 % of control and 98 % of control and the T/C [13] was 96 % of control and 106 % of control. The T/C (dose: 200.0 mg/kg/injection, schedule: Q04DX002 (ip), vehicle: other) was 100 % of control, the T/C (dose: 200.0 mg/kg/injection, schedule: Q04DX003 (ip), vehicle: other) was 100 % of control and the T/C [15] was 122 % of control and 93 % of control. For the same compound, the T/C (dose: 400.0 mg/kg/injection, schedule: Q04DX002 (ip), vehicle: other) was 102 % of control.
`CC(=O)Nc1ccc(C(=O)CCl)cc1` was tested, and the T/C [12] was 90 % of control.
For `CCC(CNCCC(=O)O)(C(=O)O)C(=O)O`, the T/C [8] was 98 % of control, the T/C [9] was 98 % of control and the T/C [10] was 90 % of control.
